Laboratory results: patent US7858796B2, “Chemical compounds” (Glaxo Group Limited, priority 2004, dated 2010)

What follows are compounds tested on human monocyte stimulated cytokine production (TNF-α) (assay: Monocyte Assay (LPS-stimulated TNF-α production)). Settings: human CD14+ monocytes, 200 ng/mL LPS, 24 hrs, TNF-α by ELISA.
Type: cell-based
Protocol: Effect of IKK-β inhibition on human monocyte stimulated cytokine production was assessed as follows: Monocytes were isolated from heparinized whole blood by Ficoll gradient, followed by purification of CD14+ cells using MACS magnetic cell separation beads. Isolated monocytes were then adhered to 96-well culture plates at 1×10^6 cells/mL in RPMI 1640 10% FBS (JRH Biosciences, Lenexa Kans.) for 2 h. to further enrich the monocyte population. The media was then removed, cells washed once with RPMI 1640, and 0.125 mL RPMI 1640 10% FBS was added to the wells. Test compounds are added to the wells 30 minutes prior to stimulation with a final vehicle concentration of 0.1% DMSO. Monocytes were activated by the addition of 200 ng/mL endotoxin (LPS; E. coli serotype 026:B6) (Sigma, St. Louis, Mo.) and incubated for 24 hrs at 37 C. Cell-free supernates were analyzed by ELISA for TNF-α using Pharmingen matched pair Abs. Viability of the cells was determined by10% trypan blue exclusion.

Row | SMILES | IC50 [µM]
1 | CC1CCCN1CCCS(=O)(=O)N1CCC(c2c[nH]c3c(C(N)=O)cc(-c4cccs4)cc23)CC1 (centres unmarked) [Example 12, 3-(1-{[3-(2-methyl-1-pyrrolidinyl)propyl]sulfonyl}-4-piperidinyl)-5-(2-thienyl)-11 indole-7-carboxamide] | < 10
2 | CN(C)CCS(=O)(=O)N1CCC(c2c[nH]c3c(C(N)=O)cc(-c4ccccc4)cc23)CC1 [Example 2, 3-(1-{[2-(dimethylamino)ethyl]sulfonyl}-4-piperidinyl)-5-phenyl-1H-indole-7-carboxamide] | < 10
3 | NC(=O)c1cc(-c2ccccc2)cc2c(C3CCN(S(=O)(=O)CCCOCC4CC4)CC3)c[nH]c12 [Example 164, 3-[1-({3-[(cyclopropylmethyl)oxy]propyl}sulfonyl)-4-piperidinyl]-5-phenyl-1H-indole-7-carboxamide] | < 10
4 | CNCc1ccc(-c2cc(C(N)=O)c3[nH]cc(C4CCN(S(=O)(=O)CCCN5CCOCC5)CC4)c3c2)s1 [Example 65, 5-{5-[(methylamino)methyl]-2-thienyl}-3-(1-{[3-(4-morpholinyl)propyl]sulfonyl}-4-piperidinyl)-1H-indole-7-carboxamide] | < 10
5 | CN(C)CCCS(=O)(=O)N1CCC(c2c[nH]c3c(C(N)=O)cc(-c4ccccc4)cc23)CC1 [Example 3, 3-(1-{[3-(dimethylamino)propyl]sulfonyl}-4-piperidinyl)-5-phenyl-1H-indole-7-carboxamide] | < 10
6 | NC(=O)c1cc(-c2ccccc2)cc2c(C3CCN(S(=O)(=O)CCCN4CCCC4)CC3)c[nH]c12 [Example 7, 5-phenyl-3-(1-{[3-(1-pyrrolidinyl)propyl]sulfonyl}-4-piperidinyl)-1H-indole-7-carboxamide] | < 10
7 | CN1CCN(CCCS(=O)(=O)N2CCC(c3c[nH]c4c(C(N)=O)cc(-c5cccs5)cc34)CC2)CC1 [Example 70, 3-(1-{[3-(4-methyl-1-piperazinyl)propyl]sulfonyl}-4-piperidinyl)-5-(2-thienyl)-1H-indole-7-carboxamide] | < 10
8 | NC(=O)c1cc(-c2ccccc2)cc2c(C3CCN(S(=O)(=O)c4ccc5nonc5c4Cl)CC3)c[nH]c12 [Example 274, 3-{1-[(4-chloro-2,1,3-benzoxadiazol-5-yl)sulfonyl]-4-piperidinyl}-5-phenyl-1H-indole-7-carboxamide] | < 10
9 | COCCS(=O)(=O)N1CCC(c2c[nH]c3c(C(N)=O)cc(-c4ccccc4)cc23)CC1 [Example 68, 3-(1-{[2-(methyloxy)ethyl]sulfonyl}-4-piperidinyl)-5-phenyl-1 indole-7-carboxamide] | < 10
10 | CC(C)NCc1cccc(-c2cc(C(N)=O)c3[nH]cc(C4CCN(S(=O)(=O)CCCN(C)C)CC4)c3c2)c1 [Example 214, 3-(1-{[3-(dimethylamino)propyl]sulfonyl}-4-piperidinyl)-5-(3-{[(1-methylethyl)amino]methyl}phenyl)-1H-indole-7-carboxamide] | < 10
11 | CC(O)C(C)OCCCS(=O)(=O)N1CCC(c2c[nH]c3c(C(N)=O)cc(-c4ccccc4)cc23)CC1 (centres unmarked) [Example 165, 3-[1-({3-[(2-hydroxy-1-methylpropyl)oxy]propyl}sulfonyl)-4-piperidinyl]-5-phenyl-1H-indole-7-carboxamide] | < 10
12 | Cc1nn(C)c(C)c1S(=O)(=O)N1CCC(c2c[nH]c3c(C(N)=O)cc(-c4ccccc4)cc23)CC1 [Example 276, 5-phenyl-3-{1-[(1,3,5-trimethyl-1H-pyrazol-4-yl)sulfonyl]-4-piperidinyl}-1H-indole-7-carboxamide] | < 10
13 | CCOCCCS(=O)(=O)N1CCC(c2c[nH]c3c(C(N)=O)cc(-c4cccs4)cc23)CC1 [Example 264, 3-(1-{[3-(ethyloxy)propyl]sulfonyl}-4-piperidinyl)-5-(2-thienyl)-1H-indole-7-carboxamide] | < 10
14 | Cc1nc(C)c(S(=O)(=O)N2CCC(c3c[nH]c4c(C(N)=O)cc(-c5ccccc5)cc34)CC2)s1 [Example 278, 3-{1-[(2,4-dimethyl-1,3-thiazol-5-yl)sulfonyl]-4-piperidinyl}-5-phenyl-1H-indole-7-carboxamide] | < 10
15 | Cc1ncc(S(=O)(=O)N2CCC(c3c[nH]c4c(C(N)=O)cc(-c5ccccc5)cc34)CC2)n1C [Example 279, 3-{1-[(1,2-dimethyl-1H-imidazol-5-yl)sulfonyl]-4-piperidinyl}-5-phenyl-1H-indole-7-carboxamide] | < 10
16 | NC(=O)c1cc(-c2cccs2)cc2c(C3CCN(S(=O)(=O)CCCN4CCC(O)CC4)CC3)c[nH]c12 [Example 14, 3-(1-{[3-(4-hydroxy-1-piperidinyl)propyl]sulfonyl}-4-piperidinyl)-5-(2-thienyl)-1-indole-7-carboxamide] | < 10
17 | NC(=O)c1cc(-c2ccsc2)cc2c(C3CCN(S(=O)(=O)CCN4CCCC4)CC3)c[nH]c12 [Example 16, 3-(1-{[2-(1-pyrrolidinyl)ethyl]sulfonyl}-4-piperidinyl)-5-(3-thienyl)-1H-indole-7-carboxamide] | < 10
18 | NC(=O)c1cc(-c2ccc(Cl)s2)cc2c(C3CCN(S(=O)(=O)CCCN4CCCC4)CC3)c[nH]c12 [Example 21, 5-(5-chloro-2-thienyl)-3-(1-{[3-(1-pyrrolidinyl)propyl]sulfonyl}-4-piperidinyl)-1H-indole-7-carboxamide] | < 10
19 | CCNCc1ccc(-c2cc(C(N)=O)c3[nH]cc(C4CCN(S(=O)(=O)CCCN5CCOCC5)CC4)c3c2)s1 [Example 66, 5-{5-[(ethylamino)methyl]-2-thienyl}-3-(1-{[3-(4-morpholinyl)propyl]sulfonyl}-4-piperidinyl)-1H-indole-7-carboxamide] | < 10

Now from value to compound:

Row | IC50 [µM] | SMILES
20 | < 10 | CCOCCCS(=O)(=O)N1CCC(c2c[nH]c3c(C(N)=O)cc(-c4ccccc4)cc23)CC1 [Example 176, 3-(1-{[3-(ethyloxy)propyl]sulfonyl}-4-piperidinyl)-5-phenyl-1H-indole-7-carboxamide]
21 | < 10 | Cc1nc(S(=O)(=O)N2CCC(c3c[nH]c4c(C(N)=O)cc(-c5ccccc5)cc34)CC2)cn1C [Example 275, 3-{1-[(1,2-dimethyl-1H-imidazol-4-yl)sulfonyl]-4-piperidinyl}-5-phenyl-1H-indole-7-carboxamide]
22 | < 10 | CN(C)CCCS(=O)(=O)N1CCC(c2c[nH]c3c(C(N)=O)cc(-c4ccsc4)cc23)CC1 [Example 9, 3-(1-{[3-(dimethylamino)propyl]sulfonyl}-4-piperidinyl)-5-(3-thienyl)-1H-indole-7-carboxamide]
23 | < 10 | NC(=O)c1cc(-c2ccccc2)cc2c(C3CCN(S(=O)(=O)c4ccsc4)CC3)c[nH]c12 [Example 311, 5-phenyl-3-[1-(3-thienylsulfonyl)piperidin-4-yl]-1H-indole-7-carboxamide]
24 | < 10 | NC(=O)c1cc(-c2ccccc2)cc2c(C3CCN(S(=O)(=O)c4ccc(CNCc5ccccc5)s4)CC3)c[nH]c12 [Example 271, 5-phenyl-3-{1-[(5-{[(phenylmethyl)amino]methyl}-2-thienyl)sulfonyl]-4-piperidinyl}-1H-indole-7-carboxamide]
25 | < 10 | NC(=O)c1cc(-c2ccc(CN3CCCC3)s2)cc2c(C3CCN(S(=O)(=O)CCCN4CCCC4)CC3)c[nH]c12 [Example 64, 5-[5-(1-pyrrolidinylmethyl)-2-thienyl]-3-(1-{[3-(1-pyrrolidinyl)propyl]sulfonyl}-4-piperidinyl)-1H-indole-7-carboxamide]
26 | < 10 | NC(=O)c1cc(-c2ccccc2)cc2c(C3CCN(S(=O)(=O)CCO)CC3)c[nH]c12 [Example 20, 3-{1-[(2-hydroxyethyl)sulfonyl]-4-piperidinyl}-5-phenyl-1H-indole-7-carboxamide]
27 | < 10 | NC(=O)c1cc(-c2ccc(F)cc2)cc2c(C3CCN(S(=O)(=O)CCCN4CCCC4)CC3)c[nH]c12 [Example 75, 5-(4-fluorophenyl)-3-(1-{[3-(1-pyrrolidinyl)propyl]sulfonyl}-4-piperidinyl)-1H-indole-7-carboxamide]
28 | < 10 | CCOCCS(=O)(=O)N1CCC(c2c[nH]c3c(C(N)=O)cc(-c4ccccc4)cc23)CC1 [Example 175, 3-(1-{[2-(ethyloxy)ethyl]sulfonyl}-4-piperidinyl)-5-phenyl-1H-indole-7-carboxamide]
29 | < 10 | NC(=O)c1cc(-c2ccsc2)cc2c(C3CCN(S(=O)(=O)CCNC4CCCC4)CC3)c[nH]c12 [Example 18, 3-(1-{[2-(cyclopentylamino)ethyl]sulfonyl}-4-piperidinyl)-5-(3-thienyl)-11 indole-7-carboxamide]
30 | < 10 | NC(=O)c1cc(-c2ccsc2)cc2c(C3CCN(S(=O)(=O)CCNC4CCC(O)CC4)CC3)c[nH]c12 (centres unmarked) [Example 19, 3-[1-({2-[(4-hydroxycyclohexyl)amino]ethyl}sulfonyl)-4-piperidinyl]-5-(3-thienyl)-1H-indole-7-carboxamide]
31 | < 10 | NC(=O)c1cc(-c2ccccc2)cc2c(C3CCN(S(=O)(=O)CCCN4CCCCC4)CC3)c[nH]c12 [Example 5, 5-phenyl-3-(1-{[3-(1-piperidinyl)propyl]sulfonyl}-4-piperidinyl)-1H-indole-7-carboxamide]
32 | < 10 | NC(=O)c1cc(-c2cccs2)cc2c(C3CCN(S(=O)(=O)CCCN4CCOCC4)CC3)c[nH]c12 [Example 73, 3-(1-{[3-(4-morpholinyl)propyl]sulfonyl}-4-piperidinyl)-5-(2-thienyl)-1H-indole-7-carboxamide]
